These are literature values, as cited in the CATMoS acute toxicity set (Mansouri et al. 2021).

Each structure is given as a SMILES string.

The LD50 is the dose at which mortality reaches 50%.

This data set can be described thus: rat acute oral toxicity. The note with it: in vivo.
In the case of `CN1CCC(N(Cc2ccccc2)c2ccccc2)CC1`, the LD50 is 460 mg/kg.
Consider `COc1ccc2c(c1)c(CC(=O)O)c(C)n2C(=O)/C=C/c1ccccc1`, for which the LD50 was 900 mg/kg.
Turning to `CCOc1ccc(C2CC(N(CC)CC)c3ccccc32)cc1` (stereo unspecified), the LD50 is 860 mg/kg.
On to `CCCCN1CCCN=C1C(OCC)c1ccccc1` (stereo unspecified), for which the LD50 is 220 mg/kg.
Consider `CNC(=O)Oc1ccc(C)c(C)c1C`, for which the LD50 is 318 mg/kg.
In the case of `Cc1cccc(C)c1Nc1ncccc1C(=O)O`, the LD50 was 2.3 mg/kg.
Turning to `CN(C)C(=O)Cl`, the LD50 was 1000 mg/kg.
As to `CCOC(=S)SSSSC(=S)OCC`, the LD50 is 275 mg/kg.
Take `CC1=C(C)C(=O)C(C(CCCCCC(=O)O)c2ccccc2)=C(C)C1=O` (racemic): the LD50 is 3750 mg/kg.
Take `NCc1ccc(S(N)(=O)=O)cc1`: the LD50 was 9210 mg/kg.
As for `CCOC(=S)SSSC(=S)OCC`, the LD50 is 235 mg/kg.
Regarding `CC(=O)OCOC(=O)C1=C(COC(N)=O)SC2C(C(C)O)C(=O)N12` (stereo unspecified), the LD50 was 7230 mg/kg.
As for `CNC(=O)Oc1ccccc1C(OC)OC`, the LD50 was 160 mg/kg.
With `CCOCN(C(=O)CO)c1c(C)cccc1CC`, the LD50 is 2400 mg/kg.
Take `Cc1cc(N(C)C)nc(Cl)n1`: the LD50 was 1.25 mg/kg.
As to `Cc1ccn(CO)n1`, the median lethal dose (LD50) was 1650 mg/kg.
With `ClCc1cc(Cl)cc(Cl)c1`, the median lethal dose (LD50) is 1080 mg/kg.
Take `O=C1c2cc(Cl)ccc2OC2CCON12` (stereo unspecified): the LD50 was 1550 mg/kg.
`NC(Cl)c1nc(Cl)c(Cl)c(Cl)c1Cl` (stereo unspecified): the LD50 is 1190 mg/kg.
As to `O=C(O)CCc1nc2ccccc2[nH]1`, the LD50 is 1700 mg/kg.
As to `CC(F)(F)C(F)(F)C(F)(F)C(O)(F)F`, the LD50 was 1110 mg/kg.
Turning to `C[N+](C)(C)CCI`, the LD50 is 700 mg/kg.
Take `COc1ccc(C(=O)Nc2ccccc2CCC2CCCCN2C)cc1` (stereo unspecified): the LD50 is 57 mg/kg.
For the molecule `C=CCn1c(=O)c2[nH]c(C)nc2n(CC(C)C)c1=O`, the LD50 was 17 mg/kg.
On to `COP(=O)(OC)Oc1ccc(S(C)(=O)=O)c(C)c1`, for which the LD50 was 30 mg/kg.
Regarding `CCC(O)CCO` (stereo unspecified), the LD50 is 20000 mg/kg.
Regarding `CC(C)(C)C1CCC(O)CC1` (stereo unspecified), the LD50 is 4200 mg/kg.
Regarding `CC[N+]1(CCOC(=O)C(O)(c2ccccc2)c2ccccc2)CCCCC1`, the LD50 is 4600 mg/kg.
For the molecule `CC(C)(c1ccc(O)cc1)c1ccc(O)cc1`, the LD50 is 1000 mg/kg.
As for `CCC(C)C(=O)OC1C(OC(C)=O)c2c(ccc3ccc(=O)oc23)OC1(C)C` (stereo unspecified), the LD50 is 1210 mg/kg.
Turning to `O=C(O)c1cc2ccccc2oc1=O`, the LD50 is 200 mg/kg.
On to `O=S(=O)(O)c1cc(Cl)ccc1C=Cc1ccc(-n2nc3cc(S(=O)(=O)O)c4ccccc4c3n2)cc1S(=O)(=O)O`, for which the LD50 is 13700 mg/kg.
Turning to `COC(=O)C1CCC(C(=O)OC)CC1` (stereo unspecified), the LD50 was 2810 mg/kg.
As for `CNCCCC12CCC(c3ccccc31)c1ccccc12`, the LD50 was 760 mg/kg.
With `Oc1ccccc1S`, the LD50 is 178 mg/kg.
On to `C=C(Cl)CCl`, for which the LD50 is 320 mg/kg.
With `CCS(=O)(=O)CCSP(=O)(OC)OC`, the LD50 is 32.4 mg/kg.
Turning to `C/C(=C1\CCOC(=O)S1)N(C=O)Cc1cnc(C)nc1N`, the LD50 was 7600 mg/kg.
On to `CC(C)Cc1ccc(C(C)C(=O)OCc2ccccn2)cc1` (stereo unspecified), for which the LD50 was 1440 mg/kg.
With `N#Cc1cc(Cl)cc2[nH]c(C(F)(F)F)nc12`, the LD50 was 4.79 mg/kg.
On to `O=[N+]([O-])c1ccc(F)cc1F`, for which the LD50 is 200 mg/kg.
As to `Oc1ccc(Cc2ccc(O)cc2)cc1`, the LD50 is 4950 mg/kg.
On to `CCCCC(C)(C)O`, for which the LD50 is 820 mg/kg.
Consider `NC(=O)c1ccc(Cl)c(N)c1`, for which the LD50 was 900 mg/kg.
For `COc1ccc2cc(C(C)C(=O)OCC(O)CO)ccc2c1` (stereo unspecified), the LD50 was 1630 mg/kg.
With `CCCCNc1ccc2c(c1)C(=O)N(CCN(CC)CC)C2=O`, the LD50 was 580 mg/kg.
As to `O=C(O)c1c(Cl)c(Cl)c(Cl)c(Cl)c1C1c2cc(Br)c(O)c(Br)c2Oc2c1cc(Br)c(O)c2Br`, the LD50 is 8400 mg/kg.
As for `CCN(CCC(=O)OC)c1ccccc1`, the LD50 is 2450 mg/kg.
Regarding `CCCCOCCOCCCO`, the LD50 was 5160 mg/kg.
Regarding `O=C(O)C(Cc1cc(I)c(O)c(I)c1)c1ccccc1` (stereo unspecified), the LD50 was 1100 mg/kg.
Regarding `O=CNC(Nc1ccc(Cl)c(Cl)c1)C(Cl)(Cl)Cl` (stereo unspecified), the LD50 was 2500 mg/kg.
On to `Cc1ncc(CO)c(C(=O)O)c1O`, for which the LD50 is 7500 mg/kg.
Take `CN(C)C(CSS(=O)(=O)O)CSS(=O)(=O)O`: the LD50 was 333 mg/kg.
Turning to `CO[C@@H]1[C@@H](O[C@@H]2O[C@H](C)[C@@H](O[C@H]3C[C@@](C)(O)[C@@H](OC(=O)CC(C)C)[C@H](C)O3)[C@H](N(C)C)[C@H]2O)[C@@H](CC=O)C[C@@H](C)[C@@H](O)C=CC=CC[C@@H](C)OC(=O)C[C@H]1O`, the LD50 is 6990 mg/kg.
In the case of `C=CCc1ccc2c(c1)OCO2`, the LD50 is 1950 mg/kg.
`CC(=O)OC1CCCCC1C(C)(C)C` (stereo unspecified): the LD50 is 4600 mg/kg.
On to `OB(O)c1ccccc1`, for which the LD50 is 740 mg/kg.
As for `O=S1(=O)CC(Cl)(Cl)C(Cl)(Cl)C1`, the LD50 is 87 mg/kg.
As to `C=C(Cl)C(Cl)=C(Cl)Cl`, the LD50 was 421 mg/kg.
Consider `CN(C)CCOc1ccnc(N)n1`, for which the LD50 was 1500 mg/kg.
Regarding `CC(O)CN(CC(C)O)c1nc(Nc2ccc(S(=O)(=O)O)cc2)nc(Nc2ccc(/C=C/c3ccc(Nc4nc(Nc5ccc(S(=O)(=O)O)cc5)nc(N(CC(C)O)CC(C)O)n4)cc3S(=O)(=O)O)c(S(=O)(=O)O)c2)n1` (stereo unspecified), the LD50 was 12100 mg/kg.
